Assays:
[1] = test system: cardiomyocytes (embryoid bodies) from double knock-in human iPS cell lines (mCherry at TNNI3 locus); assay: Experimental Example 3: mCherry expression in TNNI1+ cells by flow cytometry, Example 8 with Compound A; format: cell-based; conditions: DMSO control 10.2
Protocol: (§1) For detection of cardiomyocyte maturation, double knock-in human iPS cell lines, in which reporter protein sequences, EmGFP (Sequence Number 1) and mCherry (Sequence Number 2) were inserted into gene loci for TNNI1 and TNNI3, respectively, were prepared (the human iPS cells were prepared from episomal vector (loaded gene; OCT3/4, KLF4, SOX2, L-MYC, LIN28, mouse p53DD) using PBMC (LP_167, Sample ID: 20130318) purchased from CTL (reference literature; Okita K, et al. Stem Cells. 2012 Nov. 29. doi: 10.1002/stem.1293)).
(§2) The maintenance culture of the above-mentioned reporter iPS cell lines was carried out by a conventional method (Okita K, et al. Stem Cells. 2012 Nov. 29. doi: 10.1002/stem.1293).
For differentiation induction into cardiomyocytes, the reporter iPS cell lines were treated with 0.5×TrypLE select (Life Technologies, diluted in 1/2 with 0.5 mM EDTA/PBS) for 4 to 5 minutes, and the cells were exfoliated using a cell scraper (IWAKI), and then dissociated into the single cell by pipetting. […]

[2] = test system: cardiomyocytes (embryoid bodies) from double knock-in human iPS cell lines (mCherry at TNNI3 locus); assay: Experimental Example 2: mCherry expression in TNNI1+ cells by flow cytometry; format: cell-based; conditions: 3 μM, 8th-16th day, DMSO control 7.8
Protocol: as §1, §2
For differentiation induction into cardiomyocytes, the reporter iPS cell lines were treated with 0.5×TrypLE select (Life Technologies, diluted in 1/2 with 0.5 mM EDTA/PBS) for 4 to 5 minutes, and the cells were exfoliated using a cell scraper (IWAKI), and then dissociated into the single cell by pipetting. The medium was removed by centrifugation (1,000 rpm, 5 min), and the obtained cells were suspended in a medium prepared by adding 1% L-glutamine, transferrin 150 μg/mL, ascorbic acid 50 μg/mL (Sigma), monothioglycerol […], 10 μM Rock inhibitor (Y-27632), 2 ng/mL BMP4 (R&D) and 0.5% Matrigel (Growth Factor Reduced) to StemPro-34 SFM (ThermoFisher) in a 6 well-plate by 2×10^6 cells/1.5 mL/well, and then subjected to static culture at 37° C., under 5% oxygen condition to form embryoid bodies (0 day).
Next day (1st day), a medium prepared by adding 1% L-glutamine, transferrin 150 μg/mL, ascorbic acid 50 μg/mL (Sigma), monothioglycerol 4><10^−4 M, 1.8 μL (concentration 12 ng/mL) of 10 μg/mL activin A, […] (concentration 10 ng/mL) of 10 μg/mL bFGF and 2.7 μL (concentration 18 ng/mL) of 10 μg/mL BMP4 to 1.5 mL of StemPro-34 SFM (ThermoFisher) was added to each well of the 6 well plate containing the embryoid bodies to adjust the volume combined with the 0 day's medium to final 3 mL (activin A: 6 ng/ml, bFGF: 5 ng/ml, BMP4: 10 ng/ml), and the embryoid bodies were cultured at 37° C. for additional 2 days, under 5% oxygen condition.
Then (3rd day), the 6 well plate containing the embryoid bodies was inclined, and then left to stand for 1 to 2 minutes until the embryoid bodies were precipitated at the edges of the wells, and the supernatant was aspirated so as not to suck the embryoid bodies. Then, IMDM (ThermoFisher) medium was added to each well, and, as above, the plate was inclined, and then left to stand for 1 to 2 minutes, and the supernatant was aspirated so as not to suck the embryoid bodies. A medium prepared by adding 1% L-glutamine, transferrin 150 μg/mL, ascorbic acid 50 μg/mL (Sigma), monothioglycerol 4×10^−4 M, 10 ng/mL VEGF, 1 μM IWP-3, 0.6 μM dorsomorphin and 5.4 μM SB431542 to 3 mL of StemPro-34 SFM (ThermoFisher) was added to each well of the 6 well plate, and then the embryoid bodies were cultured at 37° C. for 3 days, under 5% oxygen condition.
Then (6th day), the 6 well plate containing the embryoid bodies was inclined, and then left to stand for 1 to 2 minutes until the embryoid bodies were precipitated at the edges of the wells, and the supernatant was aspirated so as not to suck the embryoid bodies. […]

SMILES: O=C1c2ccc(N3CCOCC3)cc2CN1c1ccc2[nH]c(-c3ccc(Br)cc3)nc2c1 [Example 8, 2-(2-(4-bromophenyl)-1H-benzimidazol-5-yl)-5-(morpholin-4-yl)isoindolin-1-one]
- mCherry+ (%) ([1]; Example 8 3 μM 8-9th days, then compound A 40 nM 10-15th days): 64.3%
- mCherry+ (%) ([1]; Example 8 3 μM 8-9 days, then Example 8 3 μM + Compound A 40 nM 10-15th days): 85.1%
- mCherry+ (%) [2]: 61.0%
